Assay results from US20100144886A1, “METHOD FOR TREATING PULMONARY ARTERIAL HYPERTENSION” (AGI Therapeutics Research Limited, priority 2006, published 2010).
Read-outs that look alike come from different tables or passages of the source. Blank lines part the entries; values can stand above or below the molecule they belong to.

Experiments:
Na channel = Na channel binding
Excerpt: […]. […] […].
Those results are summarized at Table 9.

5-HT4E receptor = 5-HT4E receptor (Homo sapiens, UniProt Q13639); conditions: at 100×10^−7 M
Chain of 5-HT4E receptor (Q13639 1-378 isoform Q13639-5): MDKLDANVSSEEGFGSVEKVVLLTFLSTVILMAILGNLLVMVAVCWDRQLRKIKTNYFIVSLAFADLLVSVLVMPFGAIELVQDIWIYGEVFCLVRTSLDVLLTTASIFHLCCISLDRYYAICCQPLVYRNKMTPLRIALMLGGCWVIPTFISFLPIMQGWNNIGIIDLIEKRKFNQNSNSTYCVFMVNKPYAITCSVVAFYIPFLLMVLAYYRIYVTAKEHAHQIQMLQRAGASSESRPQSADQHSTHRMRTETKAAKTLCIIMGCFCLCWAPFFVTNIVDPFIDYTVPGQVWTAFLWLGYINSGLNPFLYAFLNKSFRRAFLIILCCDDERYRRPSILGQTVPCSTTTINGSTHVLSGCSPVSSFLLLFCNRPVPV
Protocol: (§1) Each of those receptors was analyzed by methods known in the art. Initial assessment of binding at 100×10^−7 M (10 micro molar) was performed in duplicate.

5-HT1D receptor = 5-HT1D receptor (Homo sapiens, UniProt P28221); conditions: at 100×10^−7 M
Chain of 5-HT1D receptor (P28221 whole entry): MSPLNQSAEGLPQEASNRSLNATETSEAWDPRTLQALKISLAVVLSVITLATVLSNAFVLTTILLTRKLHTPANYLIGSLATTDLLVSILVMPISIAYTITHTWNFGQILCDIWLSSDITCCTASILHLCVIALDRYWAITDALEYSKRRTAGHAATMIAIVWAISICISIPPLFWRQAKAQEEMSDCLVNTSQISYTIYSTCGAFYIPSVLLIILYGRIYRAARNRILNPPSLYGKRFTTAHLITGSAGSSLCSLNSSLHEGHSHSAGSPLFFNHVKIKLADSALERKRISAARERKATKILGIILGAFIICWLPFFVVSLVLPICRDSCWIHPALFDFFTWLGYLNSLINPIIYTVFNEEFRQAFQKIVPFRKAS
Protocol: as §1

5-HT5A receptor = 5-HT5A receptor (Homo sapiens, UniProt P47898); conditions: at 100×10^−7 M
Chain of 5-HT5A receptor (P47898 whole entry): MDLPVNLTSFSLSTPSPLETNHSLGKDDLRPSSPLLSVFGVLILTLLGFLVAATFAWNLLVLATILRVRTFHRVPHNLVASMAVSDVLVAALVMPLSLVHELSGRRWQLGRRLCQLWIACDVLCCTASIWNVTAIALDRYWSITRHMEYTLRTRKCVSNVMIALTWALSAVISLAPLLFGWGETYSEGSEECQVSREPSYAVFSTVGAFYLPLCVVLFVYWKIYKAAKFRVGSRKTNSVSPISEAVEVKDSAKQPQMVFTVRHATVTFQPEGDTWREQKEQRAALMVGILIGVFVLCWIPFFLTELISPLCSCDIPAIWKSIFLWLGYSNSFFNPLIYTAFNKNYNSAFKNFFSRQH
Protocol: as §1

5-HT6 receptor = 5-HT6 receptor (Homo sapiens, UniProt P50406); conditions: at 100×10^−7 M
Chain of 5-HT6 receptor (P50406 whole entry): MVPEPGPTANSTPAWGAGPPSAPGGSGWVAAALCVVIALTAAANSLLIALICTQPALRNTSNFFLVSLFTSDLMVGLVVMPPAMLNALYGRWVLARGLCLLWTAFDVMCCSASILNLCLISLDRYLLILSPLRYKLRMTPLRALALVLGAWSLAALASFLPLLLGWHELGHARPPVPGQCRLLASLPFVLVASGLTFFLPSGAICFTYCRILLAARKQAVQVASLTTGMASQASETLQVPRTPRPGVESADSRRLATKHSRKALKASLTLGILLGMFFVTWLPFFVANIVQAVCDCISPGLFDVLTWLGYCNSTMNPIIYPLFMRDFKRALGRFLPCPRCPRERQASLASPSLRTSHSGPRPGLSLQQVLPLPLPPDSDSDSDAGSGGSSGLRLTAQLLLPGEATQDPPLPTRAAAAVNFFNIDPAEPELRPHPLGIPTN
Protocol: as §1

5-HT2B receptor [1] = molecular target: T1, 5-HT2B receptor (Homo sapiens, UniProt P41595)
T1 sequence (P41595 whole entry): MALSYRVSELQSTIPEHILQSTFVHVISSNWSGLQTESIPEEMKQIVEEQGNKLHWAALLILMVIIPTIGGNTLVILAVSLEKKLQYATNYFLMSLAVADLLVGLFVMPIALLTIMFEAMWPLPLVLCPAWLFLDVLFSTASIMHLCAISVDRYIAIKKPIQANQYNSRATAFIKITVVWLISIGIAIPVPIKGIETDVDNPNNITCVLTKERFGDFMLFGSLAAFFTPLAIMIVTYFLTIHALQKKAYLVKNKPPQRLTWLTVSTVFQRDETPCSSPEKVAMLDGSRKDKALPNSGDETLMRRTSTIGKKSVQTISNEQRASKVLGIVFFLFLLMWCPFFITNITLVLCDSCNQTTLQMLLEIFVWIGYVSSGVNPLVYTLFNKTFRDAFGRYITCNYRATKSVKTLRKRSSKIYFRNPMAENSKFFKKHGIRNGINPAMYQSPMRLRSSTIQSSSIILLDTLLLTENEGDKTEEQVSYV
Protocol: as §1

melatonin ML-1 [2] = system: T2, melatonin ML-1; test: Melatonin ML1 binding affinity; set-up: species or system chicken
T2 construct: other: chicken brain; other: at 100×10^−7 M
Protocol: as §1

5-HT2B receptor [3] = molecular target: T1, 5-HT2B receptor; test: 5-HT2B binding affinity of racemic verapamil and other calcium channel blockers (5-HT control, Bonhaus method); set-up: expressed in transfected cells; host or cells: CHO cells; conditions: relative potency compared to CCB, Table 2
Protocol: as §1

[4] = molecular target: L-type calcium channel binding (CCB) site (Rattus norvegicus, UniProt P22002); test: L-type calcium channel binding (CCB) affinity; conditions: rat cerebral cortex; relevant L-type calcium channel site of each blocker
Chain of L-type calcium channel binding (CCB) site (P22002 whole entry): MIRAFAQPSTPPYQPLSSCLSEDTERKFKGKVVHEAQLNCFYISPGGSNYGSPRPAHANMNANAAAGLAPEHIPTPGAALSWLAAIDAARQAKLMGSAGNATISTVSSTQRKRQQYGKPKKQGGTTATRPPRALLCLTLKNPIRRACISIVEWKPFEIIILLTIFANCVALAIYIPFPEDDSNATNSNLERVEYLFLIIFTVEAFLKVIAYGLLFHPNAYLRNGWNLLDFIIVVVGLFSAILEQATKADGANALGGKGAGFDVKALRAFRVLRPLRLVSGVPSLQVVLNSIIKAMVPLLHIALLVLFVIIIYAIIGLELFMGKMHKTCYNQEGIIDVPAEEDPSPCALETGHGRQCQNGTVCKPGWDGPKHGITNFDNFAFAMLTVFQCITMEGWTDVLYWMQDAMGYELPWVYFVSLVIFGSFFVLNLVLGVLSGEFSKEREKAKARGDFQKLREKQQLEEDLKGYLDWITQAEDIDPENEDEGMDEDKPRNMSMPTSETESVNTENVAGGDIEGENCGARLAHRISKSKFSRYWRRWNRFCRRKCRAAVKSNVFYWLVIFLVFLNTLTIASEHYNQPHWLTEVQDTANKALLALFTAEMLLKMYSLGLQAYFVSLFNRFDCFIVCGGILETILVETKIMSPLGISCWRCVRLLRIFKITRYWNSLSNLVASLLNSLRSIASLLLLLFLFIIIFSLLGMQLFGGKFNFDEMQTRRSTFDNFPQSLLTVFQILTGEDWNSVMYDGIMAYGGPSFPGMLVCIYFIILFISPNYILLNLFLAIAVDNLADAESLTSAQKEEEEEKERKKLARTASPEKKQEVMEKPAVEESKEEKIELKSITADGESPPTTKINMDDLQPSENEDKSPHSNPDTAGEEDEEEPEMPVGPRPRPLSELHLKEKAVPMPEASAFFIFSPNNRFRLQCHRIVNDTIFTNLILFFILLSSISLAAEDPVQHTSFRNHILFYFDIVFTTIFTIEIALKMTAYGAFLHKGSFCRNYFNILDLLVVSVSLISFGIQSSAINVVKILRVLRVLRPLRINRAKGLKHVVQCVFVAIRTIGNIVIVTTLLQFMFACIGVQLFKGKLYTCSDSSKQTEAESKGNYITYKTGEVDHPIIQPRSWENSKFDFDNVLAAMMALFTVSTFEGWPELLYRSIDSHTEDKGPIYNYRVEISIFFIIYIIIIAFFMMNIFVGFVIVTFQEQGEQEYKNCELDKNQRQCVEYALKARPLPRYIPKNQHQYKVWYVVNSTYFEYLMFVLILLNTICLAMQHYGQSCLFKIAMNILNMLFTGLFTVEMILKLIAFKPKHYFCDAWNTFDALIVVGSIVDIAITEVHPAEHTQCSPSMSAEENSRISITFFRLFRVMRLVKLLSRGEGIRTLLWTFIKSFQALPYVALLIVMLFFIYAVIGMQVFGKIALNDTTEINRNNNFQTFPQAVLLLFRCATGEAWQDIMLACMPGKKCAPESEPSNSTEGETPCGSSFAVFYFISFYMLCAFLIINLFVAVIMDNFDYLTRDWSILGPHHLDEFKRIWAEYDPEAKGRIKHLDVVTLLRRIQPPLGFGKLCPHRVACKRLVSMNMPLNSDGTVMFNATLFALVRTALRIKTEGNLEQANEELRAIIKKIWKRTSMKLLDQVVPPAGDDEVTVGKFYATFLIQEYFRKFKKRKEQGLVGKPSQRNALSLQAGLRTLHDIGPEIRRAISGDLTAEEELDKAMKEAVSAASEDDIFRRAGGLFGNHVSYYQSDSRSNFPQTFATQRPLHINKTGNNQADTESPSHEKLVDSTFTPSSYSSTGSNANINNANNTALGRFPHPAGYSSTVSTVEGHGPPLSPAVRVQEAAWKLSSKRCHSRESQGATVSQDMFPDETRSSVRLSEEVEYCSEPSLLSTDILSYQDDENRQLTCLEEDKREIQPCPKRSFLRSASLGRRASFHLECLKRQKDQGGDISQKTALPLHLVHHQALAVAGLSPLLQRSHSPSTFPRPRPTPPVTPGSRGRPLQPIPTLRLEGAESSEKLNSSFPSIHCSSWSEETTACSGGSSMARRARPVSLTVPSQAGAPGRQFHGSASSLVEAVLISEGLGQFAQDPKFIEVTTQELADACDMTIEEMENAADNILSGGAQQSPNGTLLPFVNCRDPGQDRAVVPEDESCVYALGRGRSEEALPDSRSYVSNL
Protocol: as §1
The binding activity of the reported receptors was analyzed using the following methods.
There are three distinct binding sites on the L-type calcium channel receptor. Further, the binding affinity at a particular site can be allosterically modulated by binding at one of the other sites. Thus, testing included the affinity of the different types of calcium channel blockers at their particular site of interaction.

melatonin ML-1 [5] = test: Melatonin ML1 binding affinity; set-up: species or system chicken; conditions: relative potency compared to CCB, Table 2
Protocol: as §1

SMILES: COc1ccc(CCN(C)CCC[C@](C#N)(c2ccc(OC)c(OC)c2)C(C)C)cc1OC [(R)-verapamil]
IC50 (Na channel): 1800 nM
percentage of binding, 5-HT4E (5-HT4E receptor): >100(24%)
percentage of binding, 5-HT1D (5-HT1D receptor): >100(17%)
percentage of binding, 5-HT5A (5-HT5A receptor): >100(19%)
percentage of binding, 5-HT6 (5-HT6 receptor): >100(47%)
% Binding, 5-HT2B (5-HT2B receptor [1]; at 0.1 (×10^−7 M)): 0%
% Binding, 5-HT2B (5-HT2B receptor [1]; at 0.3 (×10^−7 M)): 10%
% Binding, 5-HT2B (5-HT2B receptor [1]; at 1.0 (×10^−7 M)): 39%
% Binding, 5-HT2B (5-HT2B receptor [1]; at 3.0 (×10^−7 M)): 68%

percentage of binding, ML-1 (melatonin ML-1 [2]; at 100×10^−7 M): >100(9%)
SMILES: COc1ccc([C@@H]2Sc3ccccc3N(CCN(C)C)C(=O)[C@@H]2OC(C)=O)cc1 [Diltiazem]

SMILES: COC(=O)C1=C(C)NC(C)=C(C(=O)OC(C)C)C1c1cccc2nonc12 (centres unmarked) [Isradipine]
(IC50: 5-HT2B)/(IC50: CCB) (5-HT2B receptor [3]): 21,739
IC50 [4]: 0.46 nM
(IC50: ML-1)/(IC50: CCB) (melatonin ML-1 [5]): 4,348
IC50 (melatonin ML-1 [2]; chicken brain): 2000 nM
